# Experimental data taken from patent US12577238B2, “Compositions and methods for modulating inflammatory and degenerative disorder” (University of Southern California, priority 2018, dated 2026).
# Entries after “also recorded” stand apart in the source; their conditions may differ.
# Experiments:
# [1] = molecular target: T1, gp130 (Rattus norvegicus, UniProt P40190); experiment: CFA-induced systemic inflammatory response in rats, intraarticular drug; type: in vivo
# T1 construct: from tissue; host or cells: rat knee joint in vivo (Sprague-Dawley wild-type in the CFA model)
# T1 sequence (P40190 23-918): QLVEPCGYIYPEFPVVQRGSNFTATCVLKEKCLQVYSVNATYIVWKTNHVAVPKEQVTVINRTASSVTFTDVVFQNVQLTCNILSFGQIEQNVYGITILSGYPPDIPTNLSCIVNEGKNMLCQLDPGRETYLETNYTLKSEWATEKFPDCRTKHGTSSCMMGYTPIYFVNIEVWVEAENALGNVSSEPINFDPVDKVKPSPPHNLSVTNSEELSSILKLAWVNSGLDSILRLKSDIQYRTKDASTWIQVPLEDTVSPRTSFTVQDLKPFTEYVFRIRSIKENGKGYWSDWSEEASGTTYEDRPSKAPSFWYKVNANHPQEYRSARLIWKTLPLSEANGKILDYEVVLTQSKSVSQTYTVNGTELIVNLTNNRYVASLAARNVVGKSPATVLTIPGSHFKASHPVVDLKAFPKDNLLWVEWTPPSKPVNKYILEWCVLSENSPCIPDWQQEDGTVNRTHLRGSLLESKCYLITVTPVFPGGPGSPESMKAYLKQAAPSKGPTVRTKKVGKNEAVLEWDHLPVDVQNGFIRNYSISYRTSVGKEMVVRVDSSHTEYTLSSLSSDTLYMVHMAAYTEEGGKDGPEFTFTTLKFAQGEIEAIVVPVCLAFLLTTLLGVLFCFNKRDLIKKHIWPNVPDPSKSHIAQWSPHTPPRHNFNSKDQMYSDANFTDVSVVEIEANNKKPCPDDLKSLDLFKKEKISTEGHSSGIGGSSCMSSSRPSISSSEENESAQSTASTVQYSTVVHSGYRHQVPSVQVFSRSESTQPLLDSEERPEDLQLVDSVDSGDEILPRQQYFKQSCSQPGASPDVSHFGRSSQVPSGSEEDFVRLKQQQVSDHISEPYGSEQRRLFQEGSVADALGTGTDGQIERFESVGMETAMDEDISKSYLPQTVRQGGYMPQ
# Protocol: Rat (Sprague-Dawley wild-type) were injected with Complete Freund's Adjuvant (CFA) to induce systemic inflammatory response. Drug (805) was injected intraarticularly; multiple doses (A and B, N=3).
# [2] = molecular target: T2, OSMR and gp130 (Homo sapiens, UniProt P40189); experiment: Receptor competition, gp130-Flag pull-down, OSMR; type: cell-based; conditions: in the presence of OSM; IP-FLAG, WB-OSMR
# T2 construct: FLAG; expressed in transfected cells; host or cells: adult human chondrocytes
# T2 sequence (P40189 23-918): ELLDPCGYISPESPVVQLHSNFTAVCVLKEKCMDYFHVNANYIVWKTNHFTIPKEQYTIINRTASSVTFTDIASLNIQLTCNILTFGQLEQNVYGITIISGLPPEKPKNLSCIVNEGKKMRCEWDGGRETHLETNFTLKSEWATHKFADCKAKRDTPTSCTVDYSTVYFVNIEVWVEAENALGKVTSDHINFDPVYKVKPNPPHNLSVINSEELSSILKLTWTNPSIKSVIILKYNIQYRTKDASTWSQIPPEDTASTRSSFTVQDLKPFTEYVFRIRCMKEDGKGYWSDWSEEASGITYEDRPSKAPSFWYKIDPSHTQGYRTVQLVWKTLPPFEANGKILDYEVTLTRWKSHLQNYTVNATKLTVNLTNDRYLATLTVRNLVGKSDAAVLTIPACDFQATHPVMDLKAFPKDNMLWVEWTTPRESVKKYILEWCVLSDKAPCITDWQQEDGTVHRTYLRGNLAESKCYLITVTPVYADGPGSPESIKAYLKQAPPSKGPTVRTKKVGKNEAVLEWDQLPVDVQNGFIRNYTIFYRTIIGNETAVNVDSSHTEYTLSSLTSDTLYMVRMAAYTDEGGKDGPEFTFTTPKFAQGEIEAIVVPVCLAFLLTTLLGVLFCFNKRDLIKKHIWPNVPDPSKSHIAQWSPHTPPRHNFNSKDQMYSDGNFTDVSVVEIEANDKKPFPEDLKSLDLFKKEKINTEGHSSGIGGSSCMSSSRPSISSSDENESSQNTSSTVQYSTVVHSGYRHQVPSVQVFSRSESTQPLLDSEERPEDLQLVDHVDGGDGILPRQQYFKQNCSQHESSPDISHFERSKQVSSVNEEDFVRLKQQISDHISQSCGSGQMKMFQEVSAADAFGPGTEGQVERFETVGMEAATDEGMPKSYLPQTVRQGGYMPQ
# Protocol: Adult human chondrocytes transfected with gp130-Flag were incubated with various concentrations of RCGD 423 in the presence of IL-6 or OSM; levels of immoprecipitated IL-6R or OSMR were used to calculate the dissociation constant (Kd).
# Adult human chondrocytes; IP-FLAG AB (transfected with gp130 FLAG plasmid), WB-OSMR.
# This property would be of great interest due to the pro-inflammatory and pro-catabolic effects of these cytokines in the joint space. […] To assess whether RCGD 423 could directly compete for gp130 occupancy, human adult articular chondrocytes were transfected with tagged gp130 and then pulled down associated proteins±RCGD 423 and/or IL-6.
# [3] = test system: pig articular cartilage explants; experiment: Matrix degradation assay, OSM-driven, pig articular cartilage explants; type: cell-based
# Protocol: FIG. 22A-C show matrix degradation assays.
# 72 hour exposure to the drug and OSM. […] Effect is concentration dependent and increases with increase in drug concentration.
# (§1) Firstly, RCGD 423 was a hit from a library; this made the depth of the discovery surrounding the technology less comprehensive. Additionally, the physical properties of RCGD 423 (solubility, potency, functional groups) could be improved. Significant gains in these areas could potentially result in a first-in-class injectable for the treatment of post-traumatic OA. Moreover, the potential risks associated with promoting MYC stabilization and proliferation in gp130^+ cells as well as large increases in active STAT3 protein was of concern. […] These compounds were then screened in adult pig articular chondrocytes and cartilage explants, seeking compounds that could inhibit the catabolic effects of OSM but not drive increases in MYC and pSTAT3 protein levels. […] Together, these preliminary data identify CX-011 (B8) as a highly anti-inflammatory, anti-catabolic alternative to RCGD 423, with increased “drug-like” properties and reduced potential molecular liabilities.
# [4] = Survival of NZM.2328 female mice (lupus nephritis-like syndrome); type: in vivo; conditions: intraperitoneally twice weekly, 10 mg/kg
# [5] = test system: adult synovial cells; experiment: OSM-mediated cytokine secretion by adult synovial cells; type: cell-based; conditions: 10 μM
# Protocol: Adult synovial cells from three independent donors were used. Molecule 805 was used at 10 μM.
# [6] = Oral single dose, synovial inflammation in rat joints; type: in vivo; conditions: oral administration of a single dose
# [7] = Medial meniscal tear surgery, intra-articular injection; type: in vivo; conditions: following medial meniscal tear surgery
# [8] = molecular target: T3, gp130 (Homo sapiens, UniProt P40189); experiment: OSM-mediated activation of gp130 in adult human articular chondrocytes; type: cell-based; conditions: three independent donors
# T3 construct: endogenous in cells; host or cells: adult human articular chondrocytes (three donors)
# T3 sequence (P40189 23-918): T2 sequence (P40189 23-918)
# From the text: 423F is the positive control drug. Adult human articular chondrocytes from three independent donors were used to generate the results.
# Adult human articular chondrocytes from three independent donors were used to generate the results.
# Adult human articular chondrocytes from three independent donors were used.
# [9] = test system: adult pig articular chondrocytes; experiment: Proteins mediating pro-inflammatory signals with or without OSM; type: cell-based
# From the text: as §1
smiles,measurement,setting,value
Cc1ccc(-c2csc(NC(=O)c3ccccn3)n2)cc1 [B805],activation of gp130 in sick animals,[1],prolonged effect preventing activation gp130 in sick animals
same,inflammatory response in vivo,"[1]; multiple doses, N=3",inhibits inflammatory response in vivo in a dose-dependent manner
same,competition with OSMR for gp130 occupancy / OSMR-gp130 interaction,[2],disrupts the interaction between OSMR and gp130 in a concentration-dependent manner
same,"breakdown of collagen and aggrecan (aggrecan-neo, collagen-neo epitopes)",[3]; driven by OSM,strongly prevent the breakdown of collagen and aggrecan; also recorded: prevents the breakdown of collagen and aggrecan
same,increase in catalytic enzymes / induction of proteolytic gene expression,[3]; driven by OSM,prevents
same,"breakdown of collagen and aggrecan (aggrecan-neo, collagen-neo epitopes)","[3]; fresh pig cartilage explants, 72 hour exposure to drug and OSM",strongly prevents the breakdown of collagen and aggrecan
same,survival,[4],survive longer
same,OSM-mediated secretion of IL-6,[5],strongly inhibits
same,OSM-mediated secretion of TNF-α,[5],strongly inhibits
same,synovial inflammation,[6],reduced synovial inflammation in rat joints
same,cartilage degeneration,[7],reduces cartilage degeneration
same,OSM-mediated activation of downstream effector JAK2,[8],strongly inhibits
same,OSM-mediated activation of gp130,[8],inhibit OSM-mediated activation of gp130; also recorded: strongly inhibits OSM-mediated activation of gp130
same,increases in proteins mediating pro-inflammatory signals,[9]; in the presence of OSM,strongly inhibits increases in these proteins in the presence of OSM
same,endogenous levels of proteins mediating pro-inflammatory signals,[9]; without OSM,little effect
